Source: patent US8821862B2, “Soluble β-N-acetylglucosaminidase based antibiofilm compositions and uses thereof” (Kane Biotech Inc., priority 2002, dated 2014)

Assays:
S. epidermidis [1] = experiment: MIC in 96 well microtiter plate; type: cell-based; conditions: Staphylococcus epidermidis, triclosan in the presence of DispersinB 40 μg/ml, 37° C.
Description: (§1) The combined antimicrobial activity of DispersinB™ and triclosan was studied by determining minimal inhibitory concentrations (MIC) in a 96 well microtiter plate. Briefly, serial two-fold dilutions of triclosan and in presence of DispersinB™ (40 μg/ml) were performed in TSB. A suspension of each microorganism from Table 1 was added to wells at a concentration of 5×10^5 CFU/mL, and the microtiter plates were incubated at 37° C. The MIC was defined, as the lowest concentration of an antimicrobial required for total inhibition of a test microorganism at 37° C. Triclosan in combination with DispersinB™ was active against all the pathogens tested.

Enterobacter cloacae = experiment: MIC in 96 well microtiter plate; type: cell-based; conditions: triclosan in the presence of DispersinB 40 μg/ml, 37° C.
Description: as §1

K. pneumoniae = experiment: MIC in 96 well microtiter plate; type: cell-based; conditions: Klebsiella pneumoniae, triclosan in the presence of DispersinB 40 μg/ml, 37° C.
Description: as §1

S. aureus = experiment: MIC in 96 well microtiter plate; type: cell-based; conditions: Staphylococcus aureus, triclosan in the presence of DispersinB 40 μg/ml, 37° C.
Description: as §1

C. albicans = experiment: MIC in 96 well microtiter plate; type: cell-based; conditions: Candida albicans, triclosan in the presence of DispersinB 40 μg/ml, 37° C.
Description: as §1

E. faecium = experiment: MIC in 96 well microtiter plate; type: cell-based; conditions: Enterococcus faecium, triclosan in the presence of DispersinB 40 μg/ml, 37° C.
Description: as §1

P. mirabilis = experiment: MIC in 96 well microtiter plate; type: cell-based; conditions: Proteus mirabilis, triclosan in the presence of DispersinB 40 μg/ml, 37° C.
Description: as §1

E. coli [2] = experiment: MIC in 96 well microtiter plate; type: cell-based; conditions: Escherichia coli, triclosan in the presence of DispersinB 40 μg/ml, 37° C.
Description: as §1

E. faecalis = experiment: MIC in 96 well microtiter plate; type: cell-based; conditions: Enterococcus faecalis, triclosan in the presence of DispersinB 40 μg/ml, 37° C.
Description: as §1

S. epidermidis [3] = experiment: Adhesion assay with coated silicone catheter segments; type: cell-based, Staphylococcus epidermidis; conditions: silicone catheter coated with TCSN 10 mg/ml alone versus DispersinB 40 μg/ml alone
Description: (§2) The adhesion assay was performed to determine the synergistic effect of DispersinB™ and TCSN combination coated silicone catheters on S. epidermidis and E. coli colonization. The silicone catheter segments (1 cm each) were coated by dipping in DispersinB™ (40 μg/ml) and TCSN (10 mg/ml in 10% Polyethylene glycol) alone and in combination for overnight at 4° C. followed by drying at room temperature. The coated and uncoated segments were incubated in S. epidermidis and E. coli culture in TSB medium at 37° C. for 24 hours at 100 rpm. After 24 hours of incubation, the sections were washed three times gently. Each washed section was transferred into a sterile tube containing 1 ml sterile saline and subjected to sonication for 30 seconds and followed by 1 minute vortexing. Further, it was serially diluted using sterile saline and plated using Tryptic Soy Agar (TSA) plates. The plates were incubated at 37° C. for 24 hours and the colonies (CFU) were counted.

CNS 82 = experiment: MIC, clinical isolates of wound-associated pathogens; type: cell-based, Coagulase-negative staphylococci; conditions: triclosan in the presence of DispersinB 40 μg/ml; clinical isolate CNS 82
Description: as §1
(§3) The antimicrobial activity of DispersinB™ and triclosan combination was studied by determining the minimal inhibitory concentrations (MIC) in 96 well microtiter plates as described in Example 4. Triclosan in combination with DispersinB™ was active against all the pathogens tested (Table 2).

CNS 42 = experiment: as above; type: cell-based, Coagulase-negative staphylococci; conditions: triclosan in the presence of DispersinB 40 μg/ml; clinical isolate CNS 42
Description: as §1, §3

S. aureus 68 = experiment: as above; type: cell-based; conditions: Staphylococcus aureus; triclosan in the presence of DispersinB 40 μg/ml; clinical isolate S. aureus 68
Description: as §1, §3

[4] = tested on: Coagulase-negative staphylococci (CNS 11); experiment: as above; type: cell-based; conditions: triclosan in the presence of DispersinB 40 μg/ml; clinical isolate CNS 11
Description: as §1, §3

S. aureus 120 = experiment: as above; type: cell-based; conditions: Staphylococcus aureus; triclosan in the presence of DispersinB 40 μg/ml; clinical isolate S. aureus 120
Description: as §1, §3

S. aureus Gav 16A = experiment: as above; type: cell-based; conditions: Staphylococcus aureus, GAV16A; triclosan in the presence of DispersinB 40 μg/ml; clinical isolate S. aureus Gav 16A
Description: as §1, §3

E. coli [5] = experiment: Adhesion assay with coated silicone catheter segments; type: cell-based, Escherichia coli; conditions: silicone catheter coated with TCSN 10 mg/ml alone versus DispersinB 40 μg/ml alone
Description: as §2

Oc1cc(Cl)ccc1Oc1ccc(Cl)cc1Cl [triclosan]
MIC (S. epidermidis [1]): 3.12 µg/mL
MIC (Enterobacter cloacae): 25 µg/mL
MIC (K. pneumoniae): 25 µg/mL
MIC (S. aureus): < 0.097 µg/mL
MIC (C. albicans): 100 µg/mL
MIC (E. faecium): 12.5 µg/mL
MIC (P. mirabilis): 12.5 µg/mL
MIC (E. coli [2]): 6.25 µg/mL
MIC (E. faecalis): 100 µg/mL
inhibiting the growth of biofilm-embedded S. epidermidis, coating alone (S. epidermidis [3]): more effective than DispersinB™
MIC (CNS 82): < 0.39 µg/mL
MIC (CNS 42): 0.625 µg/mL
MIC (S. aureus 68): < 0.39 µg/mL
MIC [4]: 25 µg/mL
MIC (S. aureus 120): < 0.39 µg/mL
MIC (S. aureus Gav 16A): < 0.39 µg/mL
inhibiting the growth of biofilm-embedded E. coli, coating alone (E. coli [5]): more effective than DispersinB™
